Reference: patent US20220040169A1, “Methods for the Administration of Certain VMAT2 Inhibitors” (Neurocrine Biosciences, Inc., priority 2019, published 2022)

How the values were obtained:
Solubility in water = assay type: physicochemical
Source text: INGREZZA contains valbenazine, present as valbenazine ditosylate salt, with the chemical name, L-Valine, (2R,3R,11bR)-1,3,4,6,7,11b-hexahydro-9,10-dimethoxy-3-(2-methylpropyl)-2H-benzo[a]quinolizin-2-yl ester, 4-methylbenzenesulfonate (1:2). […] Its molecular formula is C38H54N2O10S2, and its molecular weight is 762.97/mol (ditosylate salt) with the following structure: […]

[1] = Phase 2 and 3 controlled studies and long-term treatment in adults with tardive dyskinesia: Parkinson-like adverse events; assay type: in vivo, human
Source text: In the Phase 2 and 3 controlled studies in adults with tardive dyskinesia (treatment up to 6 weeks), the incidence of Parkinson-like adverse events (AEs) was 3% (vs. <1% for placebo) and 4% during long-term treatment with valbenazine (up to 48 weeks).

SMILES | solubility in water (Solubility in water) | serious Parkinson-like AEs ([1]; NBI clinical studies in tardive dyskinesia patients) | incidence of Parkinson-like adverse events (AEs) ([1]; Phase 2 and 3 controlled studies, adults with tardive dyskinesia, treatment up to 6 weeks, placebo <1%) [%] | incidence of Parkinson-like adverse events (AEs) during long-term treatment ([1]; long-term treatment up to 48 weeks) [%]
COc1cc2c(cc1OC)[C@H]1C[C@@H](OC(=O)[C@@H](N)C(C)C)[C@H](CC(C)C)CN1CC2 [Valbenazine ditosylate, L-Valine, (2R,3R,11bR)-1,3,4,6,7,11b-hexahydro-9,10-dimethoxy-3-(2-methylpropyl)-2H-benzo[a]quinolizin-2-yl ester, 4-methylbenzenesulfonate (1:2)] | slightly soluble |  |  | 
COc1cc2c(cc1OC)[C@H]1C[C@@H](OC(=O)[C@@H](N)C(C)C)[C@H](CC(C)C)CN1CC2 [valbenazine, (S)-2-amino-3-methyl-butyric acid (2R, 3R,11bR)-3-isobutyl-9,10-dimethoxy-1,3,4,6,7,11b-hexahydro-2H-pyrido[2,1-a]isoquinolin-2-yl ester] |  | No serious Parkinson-like AEs were reported | 3 | 4
